Results taken from patent publication US8389680B2, “Treatment of Aspergillus infections with alpha thymosin peptides” (SciClone Pharmaceuticals, Inc., priority 2003, dated 2013).

How the values were obtained:
Assay type in all cases: cell-based
MyD88-dependent pathway = assay: Cytokine production by DCs of MyD88-deficient mice
Protocol: (§1) Female, 8- to 10-weeks old, BALB/c and C57BL6 mice were from Charles River. NOD/SCID were from The Jackson. Breeding pairs of homozygous TLR2-, TLR9- and MyD88-deficient mice, raised on C57BL6 background, and of homozygous IFN-gamma- and IL-4-deficient mice, raised on BALB/c background, were bred under specific-pathogen free conditions. For phagocytosis, DCs were pre-exposed to 100 ng/ml TA1 for 60 minutes and subsequently incubated at 37° C. with Aspergillus conidia for an additional 60 minutes. The percentage of internalization was calculated and photographs were taken. In assessing functional maturation and cytokine determination, purified DCs were resuspended in Iscove's medium (with no serum but with polymixin B, to avoid non-specific activation by serum components and endotoxin) and pulsed with 100 ng/ml TA1 for 24 hours either alone or together with TLR ligands or unopsonized Aspergillus conidia. The levels of TNF-alpha, IL-10, IL-12 p70, IFN-alpha and IL-8 in culture supernatants were determined by Kit ELISAs. The detection limits (pg/ml) of the assays were <3 (human) and <32 (murine) for TNF-alpha, <12 (murine) and <5 (human) for IL-10, <16 (murine) and <3 (human) for IL-12 p70 and <25 (human) IL-8. For human IFN-alpha <3 ng/ml. For enumeration of cytokine-producing cells, an ELISPOT assay was used on purified CD4^+ T cells and DCs from lungs.

[1] = system: human MDC and PDC subsets; assay: Activation of human MDC and PDC subsets: phagocytosis, phenotype, cytokine release
Protocol: Blood CD 11c^+ myeloid DCs (MDCs) were generated from CD 14^+ mononuclear cells by magnetic cell sorting and cultured for 5 days in Iscove's modified medium, containing 10% fetal bovine serum, 50 micromolar 2-mercaptoethanol, sodium pyruvate (1 mM), 2 mM L-glutamine, HEPES (10 mM), and 50 micrograms/ml gentamycin in the presence of 50 ng/ml rHuman GM-CSF and 200 U/ml rHuman IL-4. Immature MDCs were cultured for 24 hours with 1000 ng/ml trimeric human CD40 ligand-leucine-zipper fusion protein to obtain mature DCs. CD 123^+ plasmacytoid DCs (PDCs) were isolated using the BDCA-4 isolation kit. Purity of CD 123^+ cells was >96%. For mature PDCs, immature DCs were cultured with the trimeric human CD40 ligand as above and 10 ng/ml IL-3. […] The expression of HLA Class II, CD80 and CD86 was high in both immature and mature DCs. Murine lung CD 11c^+ DCs (between 5 to 7% positive for CD8alpha and between 30 to 35% positive for Gr-1) were isolated by magnetic cell sorting. For phagocytosis, DCs were pre-exposed to 100 ng/ml TA1 for 60 minutes and subsequently incubated at 37° C. with Aspergillus conidia for an additional 60 minutes. The percentage of internalization was calculated and photographs were taken. In assessing functional maturation and cytokine determination, purified DCs were resuspended in Iscove's medium (with no serum but with polymixin B, to avoid non-specific activation by serum components and endotoxin) and pulsed with 100 ng/ml TA1 for 24 hours either alone or together with TLR ligands or unopsonized Aspergillus conidia. Cell surface phenotype was assessed by reacting samples with FITC- or PE-conjugated rat anti-mouse antibodies. Unrelated hisotype matched antibodies were used as control. The levels of TNF-alpha, IL-10, IL-12 p70, IFN-alpha and IL-8 in culture supernatants were determined by Kit ELISAs. The detection limits (pg/ml) of the assays were <3 (human) and <32 (murine) for TNF-alpha, <12 (murine) and <5 (human) for IL-10, <16 (murine) and <3 (human) for IL-12 p70 and <25 (human) IL-8. For human IFN-alpha <3 ng/ml. For enumeration of cytokine-producing cells, an ELISPOT assay was used on purified CD4^+ T cells and DCs from lungs.

murine DCs = assay: IL-12 p70 and IL-10 production by murine DCs in response to microbial TLR ligands
Protocol: as §1, with “Zymosan was from Saccharomyces cerevisiae, lipoteichoic acid (LTA) from Staphylococcus aureus,” for “Female, 8- to 10-weeks old, BALB/c”, “lipopolysaccharide (LPS) from Salmonella Minnesota Re 595. The CpG oligonucleotides 1826 and 2006” for “C57BL6 mice”, “proven immunostimulatory sequences.” for “from Charles River. NOD/SCID were from The Jackson. Breeding pairs of homozygous TLR2-, TLR9- and MyD88-deficient mice, raised on C57BL6 background, and of homozygous IFN-gamma- and IL-4-deficient mice, raised on BALB/c background, were bred under specific-pathogen free conditions.”

[2] = after stimulation with CpG (TLR9)
[3] = after stimulation with LTA (TLR2)
[4] = after stimulation with zymosan (TLR2)

**Q.** What does the source list for “Ac-Ser-Asp-Ala-Ala-Val-Asp-Thr-Ser-Ser-Glu-Ile-Thr-Thr-Lys-Asp-Leu-Lys-Glu-Lys-Lys-Glu-Val-Glu-Glu-Ala-Glu-Asn-O (Ac-SDAAVDTSSEITTKDLKEKKEVEEAEN-OH) [TA1, naturally occurring thymic peptide]”?
**A.** IL-10 production (MyD88-dependent pathway): dramatically ablated; IL-12 p70 production (MyD88-dependent pathway; TA1 and conidia): dramatically ablated; activation of human MDC and PDC subsets ([1]; 100 ng/ml): activates; phagocytic activity of immature DCs ([1]; Aspergillus conidia, 100 ng/ml pre-exposure 60 minutes): increased; IFN-alpha production ([1]; PDCs, in response to the TLR9 ligand CpG): significantly potentiated; DC morphology ([1]; immature MDCs): more cytoplasmic projections; release of IL-12 p70 ([1]; immature MDCs, in response to conidia): significantly increase; release of IL-12 p70 ([1]; immature MDCs, in response to zymosan): significantly increase; release of IL-10 ([1]; immature PDCs, in response to conidia): significantly increase; HLA Class II antigens and costimulatory molecule expression ([1]; in response to conidia): up-regulate; production of IL-10 (murine DCs; [2]): decreases; production of IL-12 p70 (murine DCs; [2]): significantly increased; production of IL-10 (murine DCs; [3]): decreases; production of IL-12 p70 (murine DCs; [3]): significantly increased; production of IL-10 (murine DCs; [4]): decreases; production of IL-12 p70 (murine DCs; [4]): significantly increased; cytokine production (IL-12 p70 and IL-10) (murine DCs; in response to LPS (TLR4)): did not affect; cytokine production (IL-12 p70 and IL-10) (murine DCs; in response to Poly(I:C)): did not affect
